Measured values: PubChem BioAssay (NCI)
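Interpolation was linear, between the two tested concentrations surrounding the appropriate level; five concentrations were tested over 48 hours in 96-well plates. GI50 = concentration required for 50% inhibition of growth. TGI: total growth inhibition.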

Key:
Assay in all cases: NCI tumour cell line growth inhibition, 48 h
[1] = test system: IGROV1 ovarian
[2] = test system: HT29 colon
[3] = test system: NCI-H23 lung
[4] = test system: TK-10 renal
[5] = test system: RXF 393 renal
[6] = test system: SF-268 CNS
[7] = test system: SNB-78 CNS
[8] = test system: HCT-15 colon
[9] = test system: SNB-19 CNS
[10] = test system: CAKI-1 renal
[11] = test system: LXFL 529 NSCLC
[12] = test system: NCI-H460 lung
[13] = test system: SK-MEL-5 melanoma
[14] = test system: HL-60(TB) leukemia
[15] = test system: LOX IMVI melanoma
[16] = test system: MOLT-4 leukemia
[17] = test system: COLO 205 colon
[18] = test system: HOP-62 NSCLC
[19] = test system: A549 NSCLC
[20] = test system: OVCAR-5 ovarian
[21] = test system: OVCAR-4 ovarian
[22] = test system: 786-0 renal
[23] = test system: KM20L2 colon
[24] = test system: OVCAR-3 ovarian
[25] = test system: K-562 leukemia
[26] = test system: SK-MEL-2 melanoma
[27] = test system: ACHN renal
[28] = test system: SW-620 colon
[29] = test system: KM12 colon
[30] = test system: SNB-75 CNS
[31] = test system: NCI-H226 lung
[32] = test system: OVCAR-8 ovarian
[33] = test system: M14 melanoma
[34] = test system: CCRF-CEM leukemia
[35] = test system: HOP-92 NSCLC
[36] = test system: RPMI-8226 leukemia
[37] = test system: HCT-116 colon
[38] = test system: SF-295 CNS
[39] = test system: U251 CNS
[40] = test system: SR leukemia
[41] = test system: SK-OV-3 ovarian
[42] = test system: XF 498 CNS
[43] = test system: SK-MEL-28 melanoma
[44] = test system: M19-MEL melanoma
[45] = test system: UACC-257 melanoma
[46] = test system: HOP-18 NSCLC
[47] = test system: UACC-62 melanoma
[48] = test system: DMS 273 small cell lung
[49] = test system: SN12C renal
[50] = test system: DLD-1 colon
[51] = test system: MALME-3M melanoma
[52] = test system: SF-539 CNS
[53] = test system: UO-31 renal
[54] = test system: EKVX NSCLC
[55] = test system: HCC-2998 colon
[56] = test system: DMS 114 small cell lung
[57] = test system: A498 renal
[58] = test system: NCI-H522 lung

CCC[CH2][Sn]([Cl])([Cl])[CH2]CCC
GI50 [1]: 1.04 µM | TGI [1]: 1.62 µM | GI50 [2]: 1.44 µM | TGI [2]: 2.81 µM | GI50 [3]: 0.62 µM | TGI [3]: 2.21 µM | GI50 [4]: 0.569 µM | TGI [4]: 1.77 µM | GI50 [5]: 0.232 µM | TGI [5]: 0.49 µM | GI50 [6]: 0.457 µM | TGI [6]: 1.77 µM | GI50 [7]: 0.333 µM | TGI [7]: 1.43 µM | GI50 [8]: 0.738 µM | TGI [8]: 2.24 µM | GI50 [9]: 0.948 µM | TGI [9]: 2.17 µM | GI50 [10]: 0.295 µM | TGI [10]: 1.44 µM | GI50 [11]: 0.138 µM | TGI [11]: 0.474 µM | GI50 [12]: 1.75 µM | TGI [12]: 3.72 µM | GI50 [13]: 0.509 µM | TGI [13]: 1.55 µM | GI50 [14]: 0.275 µM | TGI [14]: 1.02 µM | GI50 [15]: 0.464 µM | TGI [15]: 1.84 µM | GI50 [16]: 0.356 µM | TGI [16]: 2.53 µM | GI50 [17]: 1.15 µM | TGI [17]: 3.2 µM | GI50 [18]: 1.92 µM | TGI [18]: 3.36 µM | GI50 [19]: 2.65 µM | TGI [19]: 8.25 µM | GI50 [20]: 1.51 µM | TGI [20]: 2.89 µM | GI50 [21]: 1.4 µM | TGI [21]: 2.78 µM | GI50 [22]: 0.714 µM | TGI [22]: 2.04 µM | GI50 [23]: 1.49 µM | TGI [23]: 3.01 µM | GI50 [24]: 1.03 µM | TGI [24]: 2.32 µM | GI50 [25]: 0.233 µM | TGI [25]: 1.24 µM | GI50 [26]: 0.495 µM | TGI [26]: 1.54 µM | GI50 [27]: 0.449 µM | TGI [27]: 1.62 µM | GI50 [28]: 0.333 µM | TGI [28]: 1.24 µM | GI50 [29]: 1.35 µM | TGI [29]: 2.81 µM | GI50 [30]: 0.894 µM | TGI [30]: 2.28 µM | GI50 [31]: 1.82 µM | TGI [31]: 5.01 µM | GI50 [32]: 1.88 µM | TGI [32]: 7.02 µM | GI50 [33]: 1.14 µM | TGI [33]: 2.78 µM | GI50 [34]: 0.221 µM | TGI [34]: 0.781 µM | GI50 [35]: 1.15 µM | TGI [35]: 2.64 µM | GI50 [36]: 0.198 µM | TGI [36]: 0.723 µM | GI50 [37]: 1.17 µM | TGI [37]: 2.61 µM | GI50 [38]: 1.53 µM | TGI [38]: 2.92 µM | GI50 [39]: 0.472 µM | TGI [39]: 1.62 µM | GI50 [40]: 0.296 µM | TGI [40]: 1.21 µM | GI50 [41]: 1.67 µM | TGI [41]: 3.08 µM | GI50 [42]: 0.534 µM | TGI [42]: 1.44 µM | GI50 [43]: 0.363 µM | TGI [43]: 1.36 µM | TGI [44]: 2.21 µM | GI50 [45]: 0.854 µM | TGI [45]: 2.26 µM | GI50 [46]: 1.29 µM | TGI [46]: 2.56 µM | GI50 [47]: 0.429 µM | TGI [47]: 1.63 µM | GI50 [48]: 1.29 µM | TGI [48]: 3.73 µM | GI50 [49]: 0.966 µM | TGI [49]: 2.25 µM | GI50 [50]: 0.649 µM | TGI [50]: 1.99 µM | GI50 [51]: 0.371 µM | TGI [51]: 1.44 µM | GI50 [52]: 0.87 µM | TGI [52]: 2.19 µM | GI50 [53]: 1.39 µM | TGI [53]: 2.69 µM | GI50 [54]: 0.848 µM | TGI [54]: 2.25 µM | GI50 [55]: 1.1 µM | TGI [55]: 2.32 µM

O=c1cc(CO)oc2c3c(cc(O)c12)OCC(COC1OC(CO)C(O)C(O)C1O)=CC3 (configuration not stated)
TGI [1]: > 100 µM | TGI [56]: > 100 µM | TGI [2]: > 100 µM | TGI [3]: > 100 µM | TGI [4]: > 100 µM | TGI [5]: > 100 µM | TGI [6]: > 100 µM | TGI [7]: > 100 µM | TGI [8]: > 100 µM | TGI [9]: > 100 µM | TGI [10]: > 100 µM | TGI [11]: > 100 µM | TGI [12]: > 100 µM | TGI [13]: > 100 µM | TGI [57]: > 100 µM | TGI [14]: > 100 µM | TGI [15]: > 100 µM | TGI [16]: > 100 µM | TGI [17]: > 100 µM | TGI [18]: > 100 µM | TGI [19]: > 100 µM | TGI [20]: > 100 µM | TGI [21]: > 100 µM | TGI [22]: > 100 µM | TGI [23]: > 100 µM | TGI [24]: > 100 µM | TGI [25]: > 100 µM | TGI [26]: > 100 µM | TGI [27]: > 100 µM | TGI [28]: > 100 µM | TGI [29]: > 100 µM | TGI [30]: > 100 µM | TGI [58]: > 100 µM | TGI [31]: > 100 µM | TGI [32]: > 100 µM | TGI [33]: > 100 µM | TGI [34]: > 100 µM | TGI [35]: > 100 µM | TGI [36]: > 100 µM | TGI [37]: > 100 µM | TGI [38]: > 100 µM | TGI [39]: > 100 µM | TGI [40]: > 100 µM | TGI [41]: > 100 µM | TGI [43]: > 100 µM | TGI [44]: > 100 µM | TGI [45]: > 100 µM | TGI [46]: > 100 µM | TGI [47]: > 100 µM | TGI [48]: > 100 µM | TGI [49]: > 100 µM | TGI [50]: > 100 µM | TGI [52]: > 100 µM | TGI [53]: > 100 µM | TGI [54]: > 100 µM | TGI [55]: > 100 µM

O=C1CC2CC3OC3[C@H]3c4cc5c(cc4C(=O)N1C23)OCO5 (some centres not stated)
TGI [1]: > 100 µM | TGI [56]: > 100 µM | TGI [2]: > 100 µM | TGI [4]: > 100 µM | TGI [6]: > 100 µM | TGI [8]: > 100 µM | TGI [9]: > 100 µM | TGI [10]: > 100 µM | TGI [11]: > 100 µM | TGI [12]: > 100 µM | TGI [14]: > 100 µM | TGI [15]: > 100 µM | TGI [16]: > 100 µM | TGI [17]: > 100 µM | TGI [18]: > 100 µM | TGI [19]: > 100 µM | TGI [20]: > 100 µM | TGI [21]: > 100 µM | TGI [23]: > 100 µM | TGI [24]: > 100 µM | TGI [25]: > 100 µM | TGI [26]: > 100 µM | TGI [27]: > 100 µM | TGI [28]: > 100 µM | TGI [29]: > 100 µM | TGI [58]: > 100 µM | TGI [31]: > 100 µM | TGI [32]: > 100 µM | TGI [33]: > 100 µM | TGI [34]: > 100 µM | TGI [35]: > 100 µM | TGI [36]: > 100 µM | TGI [37]: > 100 µM | TGI [38]: > 100 µM | TGI [40]: > 100 µM | TGI [41]: > 100 µM | TGI [42]: > 100 µM | TGI [43]: > 100 µM | TGI [44]: > 100 µM | TGI [47]: > 100 µM | TGI [48]: > 100 µM | TGI [49]: > 100 µM | TGI [51]: > 100 µM | TGI [52]: > 100 µM | TGI [53]: > 100 µM | TGI [54]: > 100 µM | TGI [55]: > 100 µM
